Measurements reported in paper PMC6316436, “Design of Linear and Cyclic Mutant Analogues of Dirucotide Peptide (MBP82–98) against Multiple Sclerosis: Conformational and Binding Studies to MHC Class II” (Brain Sciences, 2018).
Entries after “also recorded” stand apart in the source; their conditions may differ. Read-outs that look alike come from different tables or passages of the source. Ends that are not written are not given here.

Key:
HLA-DR2 = test: Competition binding of MBP82–98 analogues to HLA-DR2 (AMCA-labeled MBP83–99 competitor); parameters: species or system human; settings: 37 °C; for binding affinity to HLA-DR2 (competition), in words: triplicates
HLA-DR4 = test: Competition binding of MBP82–98 analogues to HLA-DR4 (AMCA-labeled HA306–318 competitor); parameters: species or system human; settings: 37 °C; for binding to HLA-DR4, overall statement: competition with AMCA-labeled HA306–318, 48 h, pH 6.0
autoreactive T cells = settings: intravenous injections, preclinical and clinical studies; ref [15]; cited from earlier work
Description: Dirucotide is licensed to BioMS Medical Corp and shared the development with Eli Lilly and Company. […] Thus, in the populat ...

[1] = test system: CD4^+CD25^+Foxp3^+ regulatory T cells; settings: ref [18], cited from earlier work
Description: (§1) Dirucotide is licensed to BioMS Medical Corp and shared the development with Eli Lilly and Company. […] As a result, further planned/scheduled clinical trials were terminated. […] It is likely that ...

patients with MS = settings: ref [16], cited from earlier work
Description: as §1

[2] = test system: patients with relapsing remitting MS and secondary progressive MS; settings: phase III, cited from earlier work
Description: as §1

[3] = test system: experimental autoimmune encephalomyelitis (EAE); settings: compared to linear PLP139–151 peptide; ref [30]; cited from earlier work
Description: The cyclization of peptides is of great interest, since the partial stability of linear peptides restricts them as potential therapeutics. We have extensively studied cyclic peptides for their enhanced stability and their potential to be used as immunotherapeutics in MS due to their altered three-dimensional conformation. […] Similarly, cyclization of the agonist proteolipid protein (PLP139–151) epit ...

[4] = phase II, HLA-DR2 and HLA-DR4 patients with MS

Substance: DENPVVHFFA^91NIVTPRT [linear MBP82–98 (Ala^91), linear altered peptide ligand of dirucotide, K91 mutated to Ala]
- binding affinity to HLA-DR2 (competition), in words (HLA-DR2; 10-fold and 20-fold excess, AMCA-labeled MBP83–99, 48 h, pH 6.0, HPSEC fluorescence, relative to linear agonist MBP82–98): bound with much lower affinity
- binding affinity to HLA-DR2 (competition), in words (HLA-DR2; 50-fold excess, AMCA-labeled MBP83–99, 48 h, pH 6.0, HPSEC fluorescence): comparable to linear agonist MBP82–98 peptide at 50-fold excess
- binding to HLA-DR4, overall statement (HLA-DR4): considerable higher affinity than cyclic MBP82–98

Substance: DENPVVHFFK^91NIVTPRT [dirucotide, 17-mer linear peptide MBP82–98]
- suppression of autoreactive T cells (autoreactive T cells): suppress autoreactive T cells
- induction of CD4+CD25+Foxp3+ regulatory T cells ([1]; following injection in patients with MS): induce CD4^+CD25^+Foxp3^+ regulatory T cells
- number of CD4+CD25+Foxp3+ regulatory T cells ([1]; six weeks and six months after treatment): increase in the number of CD4^+CD25^+Foxp3^+ regulatory T cells
- T cell responses against MBP82–98 epitope (patients with MS; injected in high concentrations in patients with MS): suppressed T cell responses against MBP82–98 epitope
- safety (patients with MS; [4]): safe
- time to disease progression (patients with MS; [4]): prolonged the median time to disease progression
- time to disease progression (patients with MS; phase II, HLA-DR2 and HLA-DR4 patients with MS, listed as Dirucotide): delayed disease progression
- benefit versus placebo ([2]; 612 subjects, ref [17]): did not provide any benefit compared to placebo
- primary and secondary endpoints ([2]; 612 subjects, ref [17]): no enhanced primary and secondary endpoints achieved
- benefit versus placebo ([2]; relapsing remitting MS and secondary progressive MS, ref [17],[18]): no added benefit was noted compared to the placebo group

Substance: cyclic PLP139–151: cyclized agonist proteolipid protein (PLP139–151) epitope (CHCLGKWLGHPDK; also: cyclized; UniProt P60202 139-151, looked up, fragment)
- disease burden and pathology [3]: low disease burden, and minimal inflammatory, demyelinating, and axonopathic pathology compared to the linear PLP139–151 peptide

Substance: cycloDENPVVHFFK^91NIVTPRT (head to tail) [cyclic MBP82–98, head to tail cyclized dirucotide]
- binding affinity to HLA-DR2 (competition), in words (HLA-DR2; 10-fold, 20-fold and 50-fold excess over AMCA-labeled MBP83–99 (1 μM), 48 h, 150 mM sodium phosphate pH 6.0, 15% acetonitrile, 0.1% Zwittergent-12, HPSEC fluorescence 350/450 nm): reduced affinity compared to its linear counterpart at 10-fold, 20-fold and 50-fold excess, but still with comparable affinity
- binding to HLA-DR2, overall statement (HLA-DR2; overall, competition with AMCA-labeled MBP83–99, 48 h, pH 6.0): strong binder with the HLA-DR2 allele; also recorded: binds to HLA-DR2 and HLA-DR4 alleles with considerable affinity; also recorded: higher affinity than MBP82–98 (A^91)
- binding affinity to HLA-DR4 (competition), in words (HLA-DR4; 10-fold, 20-fold, 50-fold excess over AMCA-labeled HA306–318 (1 μM), 48 h, 150 mM sodium phosphate pH 6.0, 15% acetonitrile, 0.1% Zwittergent-12, HPSEC fluorescence 350/450 nm, triplicates): considerably lower compared to its linear counterpart and linear APL MBP82–98 (Ala^91)
- binding to HLA-DR4, overall statement (HLA-DR4): lower affinity binding to the HLA-DR4 allele; also recorded: binds to HLA-DR2 and HLA-DR4 alleles with considerable affinity
